{"source": "ChEMBL document CHEMBL3046937", "about": "“Mass spectral characterization of fatty acid amides from alfalfa trichomes and their deterrence against the potato leafhopper” (Phytochemistry, 2005)", "assay_type_in_all_cases": "functional, organism-based", "key": {"Empoasca fabae [1]": {"tested_on": "Empoasca fabae", "assay": "Food deterrence activity against Empoasca fabae (potato leafhopper) assessed as deterring insect settling at 100 ug/cm2 through compound application to surface of sachet containing artificial diet measured at 15 min interval over next 350 min by two-choice bioassay"}, "Empoasca fabae [2]": {"tested_on": "Empoasca fabae", "assay": "Food deterrence activity against Empoasca fabae (potato leafhopper) assessed as deterring insect settling at 12.5 ug/cm2 through compound application to surface of sachet containing artificial diet measured at 15 min interval over next 350 min by two-choice bioassay"}, "Empoasca fabae [3]": {"tested_on": "Empoasca fabae", "assay": "Food deterrence activity against Empoasca fabae (potato leafhopper) assessed as deterring insect settling at 25 ug/cm2 through compound application to surface of sachet containing artificial diet measured at 15 min interval over next 350 min by two-choice bioassay"}, "Empoasca fabae [4]": {"tested_on": "Empoasca fabae", "assay": "Food deterrence activity against Empoasca fabae (potato leafhopper) assessed as deterring insect settling at 12.5 to 100 ug/cm2 through compound application to surface of sachet containing artificial diet measured at 15 min interval over next 350 min by two-choice bioassay"}, "Empoasca fabae [5]": {"tested_on": "Empoasca fabae", "assay": "Food deterrence activity against Empoasca fabae (potato leafhopper) assessed as deterring insect settling at 50 ug/cm2 through compound application to surface of sachet containing artificial diet measured at 15 min interval over next 350 min by two-choice bioassay"}}, "note": "The source made the active and inactive calls. The calls are words filed in the database; no cut-off is given here.", "data": [{"smiles": "CCCCC/C=C\\C/C=C\\CCCCCCCC(=O)NCCC(C)C", "values": [{"measurement": "Activity", "setting": "Empoasca fabae [1]", "result": "Active"}, {"measurement": "Activity", "setting": "Empoasca fabae [2]", "result": "inactive"}, {"measurement": "Activity", "setting": "Empoasca fabae [3]", "result": "Active"}, {"measurement": "Activity", "setting": "Empoasca fabae [4]", "result": "Dose-dependent effect"}, {"measurement": "Activity", "setting": "Empoasca fabae [5]", "result": "Active"}]}]}
